These are literature values, as cited in patent publication US20110123445A1, “TREATMENT MONITORING” (priority 2008, published 2011).

One series deals with phosphorylated ERK. The settings on record: phase II studies; all tumour types, including melanoma, breast, colon, and lung.
For series [1] the following is noted: phase I trial, 57 cancer patients; Adjei et al 2008.
The next series deals with ERK phosphorylation. The settings on record: at the recommended phase II dose; Adjei et al 2008.
The test system of a further series is MEK. The settings on record: Swiss 3T3 cells; Alessi et al 1995.
For a further series, the system named is tumour growth. To be noted: Sebolt-Leopold et al 1999, 2004.

In the case of `O=C(NOC[C@H](O)CO)c1ccc(F)c(F)c1Nc1ccc(I)cc1F` [PD0325901], in the series on phosphorylated ERK, the “phosphorylated ERK suppression in biopsied tumour tissue” value is “phosphorylated ERK suppression at all dose levels”.
In the case of `Cn1cnc2c(F)c(Nc3ccc(Br)cc3Cl)c(C(=O)NOCCO)cc21` [AZD6244], in series [1], the tolerability entry is “well tolerated”. Also, the “inhibition of ERK phosphorylation” value in the series with ERK phosphorylation is on record as “demonstrable inhibition”.
On to `COc1cccc(-c2cc(=O)c3ccccc3o2)c1N` [PD098059], for which, in the series on MEK, the “suppression of MEK activation by a variety of agonists” value is given as 80-90%.
With `O=C(NOCC1CC1)c1ccc(F)c(F)c1Nc1ccc(I)cc1Cl` [PD184352], the “inhibition of tumour growth in vivo” value in the series on tumour growth was “inhibit tumour growth in vivo”.
